From patent US20190343932A1, “NOVEL TREATMENTS” (ENZYMATICA AB, priority 2014, published 2019)
Where a SMILES comes first, the peptide text is derived from it. The star is where a group is joined. pNA = O=[N+]([O-])c1ccc(N*)cc1; Cbz = O=C(OCc1ccccc1)*

Assays:
Experiment in all cases: Activity assay to determine kinetic constants
Assay type in all cases: biochemical
[1] = target: Atlantic cod (Gadus morhua) trypsin I (SEQ ID NO: 1) variant EZA-002, D217S, T218N, S69K (Gadus morhua, UniProt P16049, D236S/S88K/T237N)
Chain of Atlantic cod (Gadus morhua) trypsin I (SEQ ID NO: 1) variant EZA-002, D217S, T218N, S69K (P16049 20-241 S88K/D236S/T237N): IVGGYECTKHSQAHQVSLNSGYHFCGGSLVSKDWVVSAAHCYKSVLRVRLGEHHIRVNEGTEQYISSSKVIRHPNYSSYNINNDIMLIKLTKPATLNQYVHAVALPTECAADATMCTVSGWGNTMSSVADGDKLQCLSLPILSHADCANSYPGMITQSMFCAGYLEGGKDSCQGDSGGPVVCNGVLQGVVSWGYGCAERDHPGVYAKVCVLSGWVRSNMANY
Description: (§1) The following polypeptides were obtained or produced: • (a) Wldtype trypsin I purified from Atlantic cod (“WT-Tryp” or “wildtype”); • (b) Recombinantly expressed wildtype trypsin I of Atlantic cod (SEQ ID NO:1, “R-Tryp”); and • (c) Thirty-eight different mutated versions of trypsin I of Atlantic cod (i.e. mutated sequences of SEQ ID NO:1).
(§2) Polypeptides corresponding to the wildtype amino acid sequence of trypsin I from Atlantic cod and thirty-eight mutated versions thereof were produced using the methods described in Example C.
(§3) Activation of recombinant enzymes (approximately 0.01 mg/ml) was achieved by adding wild type trypsin (0.2 U/ml) at room temperature and incubate for 24 hours. The mixture was made in 20 mM Tris-HCl, 1 mM CaCl2, 50% glycerol, pH 8.0 to a final volume of 200 μl.
(§4) The substrate (Gly-Pro-Arg) was used at concentrations 0.005-0.15 mM in assay buffer containing 1% DMSO. 245 μL of substrate solutions were pipetted into a 96-well plate. The reaction was started by adding 5 μL of the sample mixture (above) and monitored at 410 nm in a SpectraMax plate reader. Kinetic measurement was performed every minute of a continuous 15-min run.

[2] = target: Atlantic cod (Gadus morhua) trypsin I (SEQ ID NO: 1) variant EZA-003, K133T (Gadus morhua, UniProt P16049, K152T)
Chain of Atlantic cod (Gadus morhua) trypsin I (SEQ ID NO: 1) variant EZA-003, K133T (P16049 20-241 K152T): as the sequence (P16049 20-241 S88K/D236S/T237N) above, with K69S, K133T, S217D, N218T counted along it
Description: as §1, §2, §3, §4

[3] = target: Atlantic cod (Gadus morhua) trypsin I (SEQ ID NO: 1) variant EZA-004, K133L (Gadus morhua, UniProt P16049, K152L)
Chain of Atlantic cod (Gadus morhua) trypsin I (SEQ ID NO: 1) variant EZA-004, K133L (P16049 20-241 K152L): as the sequence (P16049 20-241 S88K/D236S/T237N) above, with K69S, K133L, S217D, N218T counted along it
Description: as §1, §2, §3, §4

[4] = target: Atlantic cod (Gadus morhua) trypsin I (SEQ ID NO: 1) variant EZA-005, K133V (Gadus morhua, UniProt P16049, K152V)
Chain of Atlantic cod (Gadus morhua) trypsin I (SEQ ID NO: 1) variant EZA-005, K133V (P16049 20-241 K152V): as the sequence (P16049 20-241 S88K/D236S/T237N) above, with K69S, K133V, S217D, N218T counted along it
Description: as §1, §2, §3, §4

[5] = target: Atlantic cod (Gadus morhua) trypsin I (SEQ ID NO: 1) variant EZA-006, K133E (Gadus morhua, UniProt P16049, K152E)
Chain of Atlantic cod (Gadus morhua) trypsin I (SEQ ID NO: 1) variant EZA-006, K133E (P16049 20-241 K152E): as the sequence (P16049 20-241 S88K/D236S/T237N) above, with K69S, K133E, S217D, N218T counted along it
Description: as §1, §2, §3, §4

[6] = target: Atlantic cod (Gadus morhua) trypsin I (SEQ ID NO: 1) variant EZA-007, N80T (Gadus morhua, UniProt P16049, N99T)
Chain of Atlantic cod (Gadus morhua) trypsin I (SEQ ID NO: 1) variant EZA-007, N80T (P16049 20-241 N99T): as the sequence (P16049 20-241 S88K/D236S/T237N) above, with K69S, N80T, S217D, N218T counted along it
Description: as §1, §2, §3, §4

[7] = target: Atlantic cod (Gadus morhua) trypsin I (SEQ ID NO: 1) variant EZA-008, I81L (Gadus morhua, UniProt P16049, I100L)
Chain of Atlantic cod (Gadus morhua) trypsin I (SEQ ID NO: 1) variant EZA-008, I81L (P16049 20-241 I100L): as the sequence (P16049 20-241 S88K/D236S/T237N) above, with K69S, I81L, S217D, N218T counted along it
Description: as §1, §2, §3, §4

[8] = target: Atlantic cod (Gadus morhua) trypsin I (SEQ ID NO: 1) variant EZA-009, L165G, P202Y (Gadus morhua, UniProt P16049, L184G/P221Y)
Chain of Atlantic cod (Gadus morhua) trypsin I (SEQ ID NO: 1) variant EZA-009, L165G, P202Y (P16049 20-241 L184G/P221Y): as the sequence (P16049 20-241 S88K/D236S/T237N) above, with K69S, L165G, P202Y, S217D, N218T counted along it
Description: as §1, §2, §3, §4

[9] = target: T1, Atlantic cod (Gadus morhua) trypsin I, recombinant wildtype EZA-001 (no mutations), SEQ ID NO: 1 (Gadus morhua, UniProt P16049)
T1 construct: mature trypsin from MEEDK-zymogen
T1 sequence (P16049 20-241): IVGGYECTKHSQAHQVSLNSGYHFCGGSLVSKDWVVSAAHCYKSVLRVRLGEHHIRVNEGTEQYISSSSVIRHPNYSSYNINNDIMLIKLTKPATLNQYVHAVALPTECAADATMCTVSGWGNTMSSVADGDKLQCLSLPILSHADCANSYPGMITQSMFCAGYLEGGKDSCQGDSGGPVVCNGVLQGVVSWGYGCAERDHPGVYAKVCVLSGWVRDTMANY
Description: as §1, §2, §3, §4

[10] = target: T2, Atlantic cod (Gadus morhua) trypsin I, wildtype, purified from Atlantic cod (WT-Trp), SEQ ID NO: 1 (Gadus morhua, UniProt P16049); details: reference
T2 sequence (P16049 20-241): T1 sequence (P16049 20-241)
Description: as §1, §2, §3, §4

N=C(N)NCCC[C@H](NC(=O)[C@@H]1CCCN1C(=O)CNC(=O)OCc1ccccc1)C(=O)Nc1ccc([N+](=O)[O-])cc1 [Gly-Pro-Arg, Cbz-Gly-Pro-Arg-p-nitroanilide] (Cbz-Gly-Pro-Arg-pNA)
Vmax, relative to WT-Trp [1]: 99 | Vmax, relative to WT-Trp [2]: 96 | Vmax, relative to WT-Trp [3]: 82 | Vmax, relative to WT-Trp [4]: 96 | Vmax, relative to WT-Trp [5]: 98 | Vmax, relative to WT-Trp [6]: 99 | Vmax, relative to WT-Trp [7]: 95 | Vmax, relative to WT-Trp [8]: 98 | Vmax, relative to WT-Trp [9]: 99 | Vmax (Kcat), relative to WT-Trp [10]: 100
